Data taken from US20060084688A1, “Aromatic sulfone hydroxamic acid metalloprotease inhibitor” (priority 1997, published 2006).

Tests used:
[1] = test system: neovascularization of the corneal stroma; assay: In vivo angiogenesis assay (corneal micropocket, bFGF/sucralfate Hydron pellet); parameters: species or system C57Bl/6 female mouse; details: 50 mpk bid, po; scored at day five; average of n studies
Protocol: The study of angiogenesis depends on a reliable and reproducible model for the stimulation and inhibition of a neovascular response. The corneal micropocket assay provides such a model of angiogenesis in the cornea of a mouse. See, A Model of Angiogenesis in the Mouse Cornea; Kenyon, BM, et al., Investigative Ophthalmology & Visual Science, July 1996, Vol. 37, No. 8.
In this assay, uniformLy sized Hydron™ pellets containing bFGF and sucralfate were prepared and surgically implanted into the stroma mouse cornea adjacent to the temporal limbus. […]
Mice were dosed on a daily basis for the duration of the assay. […] At day five, the degree of angiogenic inhibition was scored by viewing the neovascular progression with a slit lamp microscope.
The mice were anesthetized and the studied eye was once again proptosed. The maximum vessel length of neovascularization, extending from the limbal vascular plexus toward the pellet was measured. In addition, the contiguous circumferential zone of neovascularization was measured as clock hours, where 30 degrees of arc equals one clock hour. The area of angiogenesis was calculated as follows. […]
Five to six mice were utilized for each compound in each study. The studied mice were thereafter compared to control mice and the difference in the area of neovascularization was recorded as an averaged value. […]

[2] = test system: advanced, rapidly progressive, treatment-refractory solid tumor cancers (colorectal, pancreatic, ovarian, prostate); details: Phase I/II, cited from earlier work
[3] = test system: PC-3 human pancreatic cancer cells (ATCC CRL 1435); assay: In vivo PC-3 tumor reduction; parameters: species or system Balb/c nu/nu mice; details: day 0 to day 25-30, average of n studies
Protocol: PC-3 human pancreatic cancer eclls (ATCC CRL 1435) were grown to 90% confluence in F12/MEM (Gibco) containing 7% FBS (Gibco). Cells were mechanically harvested using a rubber scraper, and then washed twice with cold medium. The resulting cells were resuspended in cold medium with 30% matrigel (Collaborative Research) and the cell-containing medium was maintained on ice until used.
Balb/c nu/nu mice at 7-9 weeks of age were anesthetized with avertin [2,2,2-tribromethanol/t-amyl alcohol (1 g/l mL) diluted 1:60 into phosphate-buffered sline] and 3-5×10^6 of the above cells in 0.2 mL of medium were injected into the left flank of each mouse. Cells were injected in the morning, whereas dosing with an inhibitor began at 6 PM. The animals were gavaged BID from day zero (cell injection day) to day 25-30, at which time the animals were euthanized and tumors weighed.
Compounds were dosed at 10 mg/mL in 0.5% methylcellulose/0.1% polysorbate 80 to provide a 50 mg/kg (mpk) dose twice each day, or diluted to provide a 10 mg/kg (mpk) dose twice each day. Tumor measurements began on day 7 and continued every third or fourth day until completion of the study. Groups of ten mice were used in each study and nine to ten survived. Each group of mice so studied constitutes an “n” value of one, so that “n” values greater than one represent multiple studies whose averaged result is provided in the table. […]

CNC(=O)[C@@H](NC(=O)[C@H](CC(C)C)[C@H](O)C(=O)NO)C(C)(C)C [marimastat]
Inhibition of Angiogenesis (area of neovascularization vs control) [1]: 48 (n = 6) percent
most common drug-related toxicity ([2]; clinical trials): musculoskeletal pain and stiffness
cancer-specific antigens used as surrogate markers for biological activity ([2]; patients with advanced solid tumor cancers): dose-related reduction in the rise of cancer-specific antigens
Average Percentage Reduction In Tumor Weight ([3]; 10 mpk BID gavage): <5%
Average Percentage Reduction In Tumor Weight ([3]; 50 mpk BID gavage): 39 (n = 2) percent
